Experimental findings from patent publication US7846944B2, “Pyrazolo-pyridinone compounds and methods of use thereof” (Amgen Inc., priority 2007, dated 2010) are described below.

Where two headings read alike, the source gives them in different places.

Experiment [1] has as its system TNF-α secretion by LPS-treated THP1 cells. Briefly: Lipopolysaccharide-activated THP1 cell TNF production assay. The conditions noted are these: Homo sapiens, THP-1; LPS, 3 hours, THP1 cells; read-out: IC50 in the THP-1 cellular TNF production assay. Type of experiment: cell-based. The method, then:
Lipopolysaccharide-Activated THP1 Cell TNF Production Assay
THP1 cells were resuspended in fresh THP1 media (RPMI 1640, 10% heat-inactivated FBS, 1×PGS, 1×NEAA, plus 30 μM βME) at a concentration of 1.5×10^6 cells per mL. One hundred microliters of cells per well were plated in a polystyrene 96-well tissue culture plate. 1.5 micrograms per mL of bacterial LPS was prepared in THP1 media and transferred to the first 11 columns of a 96-well polypropylene plate. Column 12 contained only THP1 media for the LO control. Compounds were dissolved in 100% DMSO and serially diluted 3 fold in a polypropylene 96-well microtiter plate (drug plate). Columns 6 and 12 were reserved as controls (HI controls and LO controls respectively) and contained only DMSO. 10 μL of LPS followed by one microliter of inhibitor compound from the drug plate was transferred to the cell plate. The treated cells were induced to synthesize and secrete TNF-α in a 37° C. humidified incubator with 5% CO2 for 3 hours. Fifty microliters of conditioned media was transferred to a 96-well MULTI-ARRAY™ 96-well small spot plate—custom coated with MAB610 containing 100 μL of 2× Read Buffer P supplemented with 0.34 nM AF210NA polyclonal Ab labeled with ruthenium (MSD-Sulfo-TAG™-NHS ester). After an overnight incubation at room temperature with shaking, the reaction was read on the Sector Imager™ 6000. […] The amount of secreted TNF-α in the presence of AMG compounds compared with that in the presence of DMSO vehicle alone (HI control) was calculated using the formula: % control (POC)=(cpd−average LO)/(average HI−averageLO)*100. Data (consisting of POC and inhibitor concentration in μM) was fitted to a 4-parameter equation (y=A+((B−A)/(1+((x/C)^D))), where A is the minimum y (POC) value, B is the maximum y (POC), C is the x (cpd concentration) at the point of inflection and D is the slope factor) using a Levenburg-Marquardt non-linear regression algorithm.

For experiment [2], the system named is secreted IL-8 by whole blood activated with TNF-α. As to the kind of experiment: Inhibition of TNF-α induced IL-8 in 50% human whole blood. Type of experiment: cell-based. The note with it: TNF-α (1 nM) induced IL-8, 50% human whole blood, read-out: WB TNF/IL8 IC50. On the procedure:
Inhibition of TNF-α Induced IL-8 in 50% Human Whole Blood
Test compounds were evaluated in vitro for the ability to inhibit the production of secreted IL-8 by whole blood activated with TNF-α. Fresh human whole blood was obtained from healthy, non-medicated volunteers in sodium heparin tubes.
Compound Dilution—Assay Procedure
100 ul heparinized whole blood is plated into wells of 96 well flat bottom plates. 50 ul of either 4× compound or DMSO control (Final DMSO concentration is 0.1%) are added to the appropriate wells. Plates are incubated for 1 hour at 37 degrees Celsius. 50 ul of 4×TNF-α ([…], for a final concentration of 1 nM) or control (media alone) is added to the appropriate wells (Total volume=200 ul). Plates are incubated overnight (16-18 hours). 100 ul of supernatant is collected and stored in 96-well round bottom polypropylene plates at −80 degrees Celsius or assayed immediately for IL-8.
Cytokines are measured on antibody (Ab) sandwich ECL based 96-well detection plates. 20 ul of supernatant are added to plate and plate is sealed and shaken at RT for 1 hour. 130 ul of detection Ab cocktail is added and plates are sealed and shaken for 1 hour in the dark at RT. Plates are read on MSD Sector HTS instrument. Data are analyzed and IC50 values generated using Activity Base and XI-fit programs.

A further experiment addresses recombinant human p38α (Homo sapiens, UniProt Q16539). Briefly: Purified and activated recombinant human p38α HTRF kinase assay. Format: biochemical. The note with it: 1 nM p38α, 50 μM ATP, GST-ATF2 substrate, read-out: p38a IC50. The method, then: Purified and Activated Recombinant Human p38α Assay
• Kinase Reaction Buffer: Kinase reaction buffer for p38α HTRF assays consists of 50 mM Tris-pH 7.5, 5 mM MgCl2, 0.1 mg/mL BSA, 100 μM Na3VO4 and 0.5 mM DTT. • HTRF Detection Buffer: HTRF detection buffer contains 100 mM HEPES-pH 7.5, 100 mM NaCl, 0.1% BSA, 0.05% Tween-20, and 10 mM EDTA. • Serial Dilution of Compounds: Compounds were dissolved in 100% DMSO and serially diluted (3 fold, 10 point) in a polypropylene 96-well microtiter plate (drug plate). The final starting concentration of compounds in the p38α enzymatic assays was 1 μM. Columns 6 and 12 (HI controls and LO controls respectively) in the drug plate were reserved as controls and contained only DMSO. • Kinase Reaction The p38α kinase reactions were carried out in a polypropylene 96-well black round bottom assay plate in total volume of 30 μL kinase reaction buffer. Appropriate concentration of purified and activated enzyme (recombinant human) was mixed with indicated concentration of ATP and 100 nM GST-ATF2-Avitag, in the presence or absence (HI control) of Compound. See table below for actual concentrations. In the absence of substrate, the background was measured as LO control. The reaction was allowed to incubate for 1 hour at RT. • Assay Reagent Concentrations: The final reagent concentrations were 1 nM p38α and 50 μM ATP. […] After 60 minutes incubation at room temperature, the assay plate was read in a Discovery Plate Reader. The wells were excited with coherent 320 nm light and the ratio of delayed ([…] post excitation) emissions at […] (native europium fluorescence) and 665 nm (europium fluorescence transferred to allophycocyanin—an index of substrate phosphorylation) was determined (Park et al, 1999). • Data Analysis: The proportion of substrate phosphorylated in the kinase reaction in the presence of compound compared with that phosphorylated in the presence of DMSO vehicle alone (HI control) was calculated using the formula: % control (POC)=(compound−average LO)/(average HI−average LO)*100. Data (consisting of POC and inhibitor concentration in μM) was fitted to a 4-parameter equation (y=A+((B−A)/(1+((x/C)^D))), where A is the minimum y (POC) value, B is the maximum y (POC), C is the x (compound concentration) at the point of inflection and D is the slope factor, using a Levenburg-Marquardt non-linear regression algorithm.
The inhibition constant (Ki) of the inhibitor was estimated from the IC50 (compound concentration at the point of inflection C) using the Cheng-Prussof equation: Ki=IC50/(1+S/Km), where S is the ATP substrate concentration, and Km is the Michaelis constant for ATP as determined experimentally. All results were expressed as the mean±the standard error of the mean. Data acquisition and non-linear regression algorithms were performed using Activity Base v5.2 and XL-fit software v4.1 respectively. All data was archived using Activity Base v5.2 software.
(In general: TR-FRET usually uses a lanthanide donor and a delayed reading to cut background.)

Chain of recombinant human p38α (Q16539 whole entry): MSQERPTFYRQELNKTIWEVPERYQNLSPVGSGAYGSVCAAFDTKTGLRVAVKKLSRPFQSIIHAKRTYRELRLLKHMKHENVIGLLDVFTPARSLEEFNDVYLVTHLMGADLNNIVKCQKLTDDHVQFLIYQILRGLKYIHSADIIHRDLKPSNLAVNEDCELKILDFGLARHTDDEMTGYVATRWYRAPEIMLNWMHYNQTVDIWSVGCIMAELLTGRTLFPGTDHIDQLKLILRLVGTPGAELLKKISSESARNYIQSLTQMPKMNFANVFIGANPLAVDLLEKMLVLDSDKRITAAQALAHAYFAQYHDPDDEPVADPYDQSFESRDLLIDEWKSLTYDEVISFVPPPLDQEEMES

As for `Cn1c(=O)c(-c2cc(C(=O)O)ccc2Cl)cc2cnn(-c3c(F)cccc3F)c21` [Example 42, 4-chloro-3-(1-(2,6-difluorophenyl)-7-methyl-6-oxo-6,7-dihydro-1H-pyrazolo[3,4-b]pyridin-5-yl)benzoic acid], the IC50 in experiment [1] was no more than 175 nM; in experiment [2] (Homo sapiens), no less than 2500 nM.

Take “N-cyclopropyl-3-(1-(2,4-difluorophenyl)-7-methyl-6-thioxo-6,7-dihydro-1H-pyrazolo[3,4-b]pyridin-5-yl)-4-methylbenzenecarbothioamide [Example 51]”: the IC50 in experiment [2] turned out to be 225 nM.

Consider `Cc1ccc(C(=O)NC2CC2)cc1-c1cc2cnn(S(=O)(=O)C3CC3)c2n(C)c1=O` [Example 47, N-cyclopropyl-3-(1-(cyclopropylsulfonyl)-7-methyl-6-oxo-6,7-dihydro-1H-pyrazolo[3,4-b]pyridin-5-yl)-4-methylbenzamide], for which the IC50 in experiment [2] (Homo sapiens) worked out at 662 nM.

Consider `Cn1c(=O)c(-c2cc(N)ccc2Cl)cc2cnn(-c3c(F)cccc3F)c21` [Example 48, 5-(5-amino-2-chlorophenyl)-1-(2,6-difluorophenyl)-7-methyl-1,7-dihydro-6H-pyrazolo[3,4-b]pyridin-6-one], for which the IC50 in experiment [1] is no more than 175 nM; in experiment [2] (Homo sapiens) it was 327 nM.

Take `Cc1ccc(NC(=O)C2CC2)cc1-c1cc2cnn(-c3ccc(F)cc3F)c2n(C)c1=O` [Example 16, N-(3-(1-(2,4-difluorophenyl)-7-methyl-6-oxo-6,7-dihydro-1H-pyrazolo[3,4-b]pyridin-5-yl)-4-methylphenyl)cyclopropanecarboxamide]: the IC50 in experiment [1] is no more than 175 nM; in experiment [2] (Homo sapiens), no more than 100 nM; in experiment [2], 73.6 nM.

Take `Cc1ccc(I)cc1-c1cc2cnn(-c3ccc(F)cc3F)c2n(C)c1=O` [Example 43, 1-(2,4-difluorophenyl)-5-(5-iodo-2-methylphenyl)-7-methyl-1,7-dihydro-6H-pyrazolo[3,4-b]pyridin-6-one]: the IC50 in experiment [2] (Homo sapiens) was no less than 2500 nM.

Take `Cn1c(=O)c(-c2cc(C#N)ccc2Cl)cc2cnn(-c3c(F)cccc3F)c21` [Example 33, 4-chloro-3-(1-(2,6-difluorophenyl)-7-methyl-6-oxo-6,7-dihydro-1H-pyrazolo[3,4-b]pyridin-5-yl)benzonitrile]: the IC50 in experiment [2] (Homo sapiens) was no less than 2500 nM.

As for `Cc1ccc(I)cc1-c1cc2cnn(-c3c(F)cccc3F)c2n(C)c1=O` [Example 40, 1-(2,6-difluorophenyl)-5-(5-iodo-2-methylphenyl)-7-methyl-1,7-dihydro-6H-pyrazolo[3,4-b]pyridin-6-one], the IC50 in experiment [2] (Homo sapiens) was no less than 2500 nM.

On to `Cc1ccc(N)cc1-c1cc2cnn(-c3c(F)cccc3F)c2n(C)c1=O` [Example 39, 5-(5-amino-2-methylphenyl)-1-(2,6-difluorophenyl)-7-methyl-1,7-dihydro-6H-pyrazolo[3,4-b]pyridin-6-one], for which the IC50 in experiment [1] was no more than 175 nM; in experiment [2] (Homo sapiens), no more than 100 nM; in experiment [2] it was 60 nM.

On to `Cc1ccc(C(=O)Nc2ccnn2C)cc1-c1cc2cnn(-c3c(F)cccc3F)c2n(C)c1=O` [Example 10, 3-(1-(2,6-difluorophenyl)-7-methyl-6-oxo-6,7-dihydro-1H-pyrazolo[3,4-b]pyridin-5-yl)-4-methyl-N-(1-methyl-1H-pyrazol-5-yl)benzamide], for which the results for the IC50 (in experiment [1]; on recombinant human p38α) were no more than 175 nM and 2.9 nM, respectively.

For the molecule `CCn1c(=O)c(-c2cc(C(=O)NC3CC3)ccc2C)cc2cnn(-c3ccc(F)cc3F)c21` [Example 46, N-cyclopropyl-3-(1-(2,4-difluorophenyl)-7-ethyl-6-oxo-6,7-dihydro-1H-pyrazolo[3,4-b]pyridin-5-yl)-4-methylbenzamide], the IC50 in experiment [1] is no more than 175 nM; at recombinant human p38α, 4.9 nM.

On to `CNC(=O)c1cc(F)c(C)c(-c2cc3cnn(-c4c(F)cccc4F)c3n(C)c2=O)c1` [Example 22, 3-(1-(2,6-difluorophenyl)-7-methyl-6-oxo-6,7-dihydro-1H-pyrazolo[3,4-b]pyridin-5-yl)-5-fluoro-N,4-dimethylbenzamide], for which the IC50 in experiment [1] was no more than 175 nM; at recombinant human p38α it was 6.2 nM.

Turning to `Cc1ccc(C(=O)NC2(C)CC2)cc1-c1cc2cnn(-c3cc(F)ccc3F)c2n(C)c1=O` [Example 25, 3-(1-(2,5-difluorophenyl)-7-methyl-6-oxo-6,7-dihydro-1H-pyrazolo[3,4-b]pyridin-5-yl)-4-methyl-N-(1-methylcyclopropyl)benzamide], the results for the IC50 (in experiment [1]; on recombinant human p38α) were no more than 175 nM and 1.1 nM, respectively.

As for `Cc1ccc(C(=O)Nc2nccs2)cc1-c1cc2cnn(-c3c(F)cccc3F)c2n(C)c1=O` [Example 28, 3-(1-(2,6-difluorophenyl)-7-methyl-6-oxo-6,7-dihydro-1H-pyrazolo[3,4-b]pyridin-5-yl)-4-methyl-N-1,3-thiazol-2-ylbenzamide], the results for the IC50 (in experiment [1]; on recombinant human p38α) were no more than 175 nM and 1.1 nM, respectively.

In the case of `Cc1ccc(C(=O)NC2CC2)cc1-c1cc2cnn(-c3ccccc3C)c2n(C)c1=O` [Example 14, N-cyclopropyl-4-methyl-3-(7-methyl-1-(2-methylphenyl)-6-oxo-6,7-dihydro-1H-pyrazolo[3,4-b]pyridin-5-yl)benzamide], the figures for the IC50 (in experiment [1]; at recombinant human p38α) were no more than 175 nM and 4.2 nM, respectively.

Consider `Cc1c(F)cc(C(=O)NC(C)C)cc1-c1cc2cnn(-c3c(F)cccc3F)c2n(C)c1=O` [Example 21, 3-(1-(2,6-difluorophenyl)-7-methyl-6-oxo-6,7-dihydro-1H-pyrazolo[3,4-b]pyridin-5-yl)-5-fluoro-4-methyl-N-(1-methylethyl)benzamide], for which the values for the IC50 (in experiment [1]; at recombinant human p38α) were no more than 175 nM and 7 nM, respectively.
